How the values were obtained:
[1] = target: T1, mJHBP (Aedes aegypti, UniProt Q16Y94); assay: isothermal titration calorimetry, single-site fit; assay type: binding; conditions: read-out: Ka
T1 construct: gene 5570847; two OBP domains; gel filtration, Q-Sepharose and Phenyl-Sepharose purified; probably mature protein
T1 sequence (Q16Y94 25-311): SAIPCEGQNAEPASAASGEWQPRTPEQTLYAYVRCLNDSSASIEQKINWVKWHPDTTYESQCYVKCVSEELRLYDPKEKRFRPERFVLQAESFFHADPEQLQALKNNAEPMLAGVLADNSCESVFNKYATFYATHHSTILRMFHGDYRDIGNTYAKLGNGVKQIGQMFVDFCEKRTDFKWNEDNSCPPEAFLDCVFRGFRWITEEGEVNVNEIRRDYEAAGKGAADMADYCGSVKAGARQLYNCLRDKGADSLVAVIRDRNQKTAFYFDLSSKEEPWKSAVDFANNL
Text: isothermal titration calorimetry, single-site fit on mJHBP | wild type mJHBP.

[2] = target: T2, mJHBP (Aedes aegypti, UniProt Q16Y94, Y152F); assay: isothermal titration calorimetry, single-site fit; assay type: binding; conditions: read-out: Ka (converted)
T2 construct: gene 5570847; two OBP domains; gel filtration, Q-Sepharose and Phenyl-Sepharose purified; probably mature protein
T2 sequence (Q16Y94 25-311 Y152F): T1 sequence (Q16Y94 25-311)
Text: isothermal titration calorimetry, single-site fit on mJHBP | Y129F mutant.

## COC(=O)/C=C(\C)CC/C=C(\C)CC[C@H]1OC1(C)C [JH III, juvenile hormone III]
[1]
  Kd: 0.1 µM
[2]
  Kd: 1.09 µM

Reference: publication PMC6994123, “A mosquito juvenile hormone binding protein (mJHBP) regulates the activation of innate immune defenses and hemocyte development” (PLoS Pathogens, 2020)
